Assay results published in the NIST ThermoML archive (doi:10.1021/je301123j).

Test: xn = mol fraction of the nth substance listed
Details: for surface tension liquid-gas: Ring tensiometer; for mass density / speed of sound / viscosity: 100 kPa, Liquid

CCN1CCCC1=O [1-ethyl-2-pyrrolidinone] + OCCNCCO
Details	mass density [kg/m3]	speed of sound [m/s]	surface tension liquid-gas [mN/m]	viscosity [mPa·s]
293.15 K, x1 = 0.1	1084.34	1700.4	44.5	462.69
293.15 K, x1 = 0.2005	1072.76	1666.7	42.8	227.23
293.15 K, x1 = 0.3001	1061.83	1638.2	41.2	109.6
293.15 K, x1 = 0.4002	1051.18	1611.7	40.1	51.6
293.15 K, x1 = 0.4999	1040.9	1589.2	39.2	26.02
293.15 K, x1 = 0.6	1031.22	1569.3	38.1	13.84
293.15 K, x1 = 0.7001	1022.09	1552.5	37.8	8.154
293.15 K, x1 = 0.8001	1013.33	1538.4	37.2	4.999
293.15 K, x1 = 0.8995	1005.23	1524.5	36.5	3.117
293.15 K, x1 = 1	997.91	1513.2	36.5	2.132
303.15 K, x1 = 0.1	1077.54	1672.2	43.6	211.41
303.15 K, x1 = 0.2005	1065.85	1637.9	41.3	110.73
303.15 K, x1 = 0.3001	1054.58	1607.8	40.1	55.57
303.15 K, x1 = 0.4002	1043.68	1581	39.1	29.59
303.15 K, x1 = 0.4999	1033.22	1557.4	38.4	16.21
303.15 K, x1 = 0.6	1023.25	1536.3	37.1	9.351
303.15 K, x1 = 0.7001	1013.95	1518.1	36.7	5.87
303.15 K, x1 = 0.8001	1005.2	1503.6	36.2	3.826
303.15 K, x1 = 0.8995	996.81	1487.8	35.3	2.496
303.15 K, x1 = 1	989.34	1475	35.2	1.777
313.15 K, x1 = 0.1	1070.86	1645.8	42	108.68
313.15 K, x1 = 0.2005	1058.79	1610.1	40.4	57.66
313.15 K, x1 = 0.3001	1047.53	1578.7	38.8	32.13
313.15 K, x1 = 0.4002	1036.08	1550.5	38.3	18.38
313.15 K, x1 = 0.4999	1025.43	1526.2	37	10.8
313.15 K, x1 = 0.6	1015.25	1503.7	36.3	6.732
313.15 K, x1 = 0.7001	1005.78	1484.4	35.9	4.419
313.15 K, x1 = 0.8001	996.9	1469.1	34.8	3.014
313.15 K, x1 = 0.8995	988.38	1451.6	34.4	2.058
313.15 K, x1 = 1	980.76	1437.6	34.2	1.515
323.15 K, x1 = 0.1	1064.04	1619.5	–	57.82
323.15 K, x1 = 0.2005	1051.64	1582.5	–	33.78
323.15 K, x1 = 0.3001	1039.8	1550	–	20.16
323.15 K, x1 = 0.4002	1028.42	1519.9	–	12.28
323.15 K, x1 = 0.4999	1017.57	1495.1	–	7.624
323.15 K, x1 = 0.6	1007.21	1471	–	5.011
323.15 K, x1 = 0.7001	997.61	1450.7	–	3.439
323.15 K, x1 = 0.8001	988.58	1434.7	–	2.429
323.15 K, x1 = 0.8995	979.92	1415.6	–	1.734
323.15 K, x1 = 1	972.16	1400.6	–	1.31
